Measurements taken from patent US20080004266A1, “Method for treating proliferative disorders associated with protooncogene products” (priority 2006, published 2008).
Where “and” joins values, the source holds several entries; their conditions need not be identical. Identical values can stand only once.

Experiments:
[1] = test system: P815 cells (c-Kit D814Y); assay: Cell survival in mouse mastacytoma cell line P815 (Cell Counting Kit-8); type: cell-based; conditions: 72 hours
Protocol: Mouse mastacytoma cell line P815 was obtained from the American Type Culture Collection (ATCC; Manassas, Va., USA). […] P815 cells (20,000 cells/well) were cultured in 96-well plates and maintained at 37° C. for several hours. […] 17AAG and 17DMAG are Hsp90 inhibitors that are currently in clinical trials and are used here as positive controls for Hsp90 inhibition. […] Cell survival was measured with Cell Counting Kit-8 (Dojindo Laboratories, Cat # CK04).

[2] = test system: human chronic myelogenous leukemia tumor cell line K-562; assay: K-562 (Bcr-Abl) SCID mouse xenograft model; type: in vivo, human (xenograft in SCID mouse); conditions: 35 mg/kg i.v. 5 times per week, day 17
Protocol: Growth of this tumor cell line is dependent upon the expression of the Bcr-Abl fusion protein (C. Gambacarti-Passerini et al., Blood Cells Mol. Dis. 23:380-394, 1997). The cells were cultured in growth media prepared with Iscove's Modified Dulbecco's Media, 10% fetal bovine serum (FBS), 1% 100× Penicillin-Streptomycin, 1% 100× sodium pyruvate and 1% 100×MEM non-essential amino acids. FBS was obtained from ATCC and all other reagents were obtained from Invitrogen Corp. (Carlsbad, Calif., USA). Cells that had been cryopreserved in liquid nitrogen were rapidly thawed at 37° C. and transferred to a tissue culture flask containing growth media and then incubated at 37° C. in a 5% CO2 incubator. […]
Seven to eight week old, female CB17/Icr-Prkdc^scid/Crl (SCID) mice were obtained from Charles River Laboratories (Wilmington, Mass., USA). […] To implant K-562 tumor cells into SCID mice, cell cultures were centrifuged to pellet the cells, the supernatant was aspirated, the cell pellet was resuspended in 10 ml of growth media and the cell number determined using a hemocytometer. […]
Tumors were then permitted to develop in vivo until the majority reached 100-200 mm^3 in tumor volume, which typically required 1-2 weeks following implantation. […] Tumor volumes (V) were calculated by caliper measurement of the width (W), length (L) and thickness (T) of tumors using the following formula: V=0.5236×(L×W×T). […]

## CC(C)c1cc(-c2nnc(O)n2-c2ccc3c(ccn3C)c2)c(O)cc1O [Compound 226, 3-(2,4-di-hydroxy-5-isopropyl-phenyl)-4-(1-methyl-indol-5-yl)-5-hydroxy-[1,2,4] triazole]
[1]
  IC50 for cell survival (comparison): lower IC50 for cell survival than 17AAG, 17DMAG or Gleevec
[2]
  average bodyweight loss relative to the start of the study: −12.4% (+/−1.4 SEM)
[2]; SCID mice, 6 doses, 35 mg/kg
  % T/C value: 25% and 24.7%
